Consider 1 molecule from ChEMBL document CHEMBL3832540, “DailyMed|setid=3ce9ee32-b18b-4ef3-b127-ce479d520e1a | BRILINTA- ticagrelor tablet|Bryant Ranch Prepack”.

A short description of data set [1]: (§1) Evaluation of pharmacokinetic parameters for Ticagrelor following oral administration of Ticagrelor tablets (BRILINTA). Type of data set: ADME, organism-based. The settings on record: human, in vivo, dosed compound id 12, dosed compound name TICAGRELOR, tissue Plasma.
A further data set deals with Homo sapiens. Described as §1. Type of data set: ADME, organism-based. To be noted: in vivo, po, dosed compound id 12, dosed compound name TICAGRELOR, tissue Plasma.

A word on the Tmax: it is the time at which the peak concentration occurs. The bioavailability is the share of a dose that reaches the circulation, judged against a reference dose that is usually intravenous. The half-life is the time in which the quantity being followed falls by half.

Turning to `CCCSc1nc(N[C@@H]2C[C@H]2c2ccc(F)c(F)c2)c2nnn([C@@H]3C[C@H](OCCO)[C@@H](O)[C@H]3O)c2n1` [TICAGRELOR], in data set [1], the Tmax is 1.5 h, the bioavailability was found to be 36% and the half-life is 7 h. In the data set on Homo sapiens, this molecule displayed a Protein bound of 99% and a Vd of 88 L.
